System: hypoxia-inducible endogenous VEGF expression in HeLa cells
Assay: Hypoxia-inducible endogenous VEGF expression, VEGF ELISA of conditioned media (dose-response EC50)
Assay type: cell-based
Details: HeLa cells under hypoxic conditions
Experimental: The ability of the compounds of the invention to modulate hypoxia-inducible endogenous VEGF expression may be analyzed as follows. VEGF protein levels may be monitored by an ELISA assay (R&D Systems). Briefly, HeLa cells may be cultured for 24-48 hours under hypoxic conditions (1% O2, 5% CO2, balanced with nitrogen) in the presence or absence of a compound of the invention. The conditioned media may then be assayed by ELISA, and the concentration of VEGF calculated from the standard ELISA curve of each assay.
A dose-response analysis may be performed using the ELISA assay and conditions described above. The conditions for the dose-response ELISA are analogous to those described above. A series of, e.g., seven different concentrations may be analyzed. […] Dose-response curves may be plotted using percentage inhibition versus concentration of the compound, and EC50 and CC50 values may be generated for each compound with the maximal inhibition set as 100% and the minimal inhibition as 0%.

Compound | EC50 (Homo sapiens) [nM] | EC50 [nM]
COC(=O)N1CCc2c([nH]c3ccc(Cl)cc23)C1c1cccc(F)c1F (stereo not drawn) [Compound 53] | 8 to 40 | 
CCOC(=O)N1CCc2c([nH]c3ccc(Cl)cc23)C1c1ccc(Br)cc1 (stereo not drawn) [Compound 54] | 8 to 40 | 
O=C(OCCCl)N1CCc2c([nH]c3ccc(Cl)cc23)C1c1ccc(Cl)cc1 (stereo not drawn) [Compound 55] | 8 to 40 | 
CC(C)OC(=O)N1CCc2c([nH]c3ccc(Cl)cc23)C1c1ccc([N+](=O)[O-])cc1 (stereo not drawn) [Compound 56] | 8 to 40 | 
COc1ccc(C2c3[nH]c4ccc(Cl)cc4c3CCN2C(=O)OC(C)C)cc1 (stereo not drawn) [Compound 57] | 8 to 40 | 
O=C(OCCCl)N1CCc2c([nH]c3ccc(Cl)cc23)C1c1ccc(Br)cc1 (stereo not drawn) [Compound 58] | 8 to 40 | 
CCOC(=O)N1CCc2c([nH]c3ccc(Br)cc23)C1c1ccc([N+](=O)O)cc1 (stereo not drawn) [Compound 59] |  | 8 to 40
COc1ccc(C2c3[nH]c4ccc(Cl)cc4c3CCN2C(=O)Oc2ccccc2)cc1 (stereo not drawn) [Compound 60] | 8 to 40 | 
COc1ccc(C2c3[nH]c4ccc(Cl)cc4c3CCN2C(=O)OCCCl)cc1 (stereo not drawn) [Compound 61] | 8 to 40 | 
COC(=O)N1CCc2c([nH]c3ccc(Cl)cc23)C1c1ccc(C(F)(F)F)cc1 (stereo not drawn) [Compound 62] | 8 to 40 | 
CCOC(=O)N1CCc2c([nH]c3ccc(Br)cc23)C1c1cc(F)cc(F)c1 (stereo not drawn) [Compound 64] | 8 to 40 | 
COC(=O)N1CCc2c([nH]c3ccc(Br)cc23)C1c1ccccc1 (stereo not drawn) [Compound 65] | 8 to 40 | 
CCCOC(=O)N1CCc2c([nH]c3ccc(Cl)cc23)C1c1ccc([N+](=O)[O-])cc1 (stereo not drawn) [Compound 66] | 8 to 40 | 
CC(C)COC(=O)N1CCc2c([nH]c3ccc(Br)cc23)C1c1ccccc1 (stereo not drawn) [Compound 67] | 8 to 40 | 
COC(=O)N1CCc2c([nH]c3ccc(Cl)cc23)C1c1ccc(F)cc1 (stereo not drawn) [Compound 68] | 8 to 40 | 
CCCOC(=O)N1CCc2c([nH]c3ccc(Cl)cc23)C1c1cccc(Br)c1 (stereo not drawn) [Compound 69] | 8 to 40 | 
COC(=O)N1CCc2c([nH]c3ccc(Cl)cc23)C1c1ccc(Cl)cc1 (stereo not drawn) [Compound 70] | 8 to 40 | 
CCCOC(=O)N1CCc2c([nH]c3ccc(Cl)cc23)C1c1ccc(C#N)cc1 (stereo not drawn) [Compound 71] | 8 to 40 | 
CCCOC(=O)N1CCc2c([nH]c3ccc(Cl)cc23)C1c1cccc(Cl)c1 (stereo not drawn) [Compound 72] | 8 to 40 | 
ON1CCc2c([nH]c3ccc(Br)cc23)C1c1cccc(F)c1F (stereo not drawn) [Compound 73] | 8 to 40 | 
CCCOC(=O)N1CCc2c([nH]c3ccc(Cl)cc23)C1c1cccc(F)c1 (stereo not drawn) [Compound 75] | 8 to 40 | 
O=C(Oc1ccccc1)N1CCc2c([nH]c3ccc(Br)cc23)C1c1ccccc1 (stereo not drawn) [Compound 76] | 8 to 40 | 
CCOC(=O)N1CCc2c([nH]c3ccc(Cl)cc23)C1c1cc(F)cc(F)c1 (stereo not drawn) [Compound 77] | 8 to 40 | 
CCOC(=O)N1CCc2c([nH]c3ccc(Br)cc23)C1c1ccc(F)c(F)c1 (stereo not drawn) [Compound 78] | 8 to 40 | 

Compound | EC50 (Homo sapiens) [nM] | EC50 [nM]
CCCOC(=O)N1CCc2c([nH]c3ccc(Cl)cc23)C1c1cccc(C(F)(F)F)c1 (stereo not drawn) [Compound 79] | 8 to 40 | 
CC(=O)N1CCc2c([nH]c3ccc(Br)cc23)C1c1cccc(C(F)(F)F)c1 (stereo not drawn) [Compound 80] | 8 to 40 | 
ON1CCc2c([nH]c3ccc(Br)cc23)C1c1ccc(Cl)cc1 (stereo not drawn) [Compound 81] | 8 to 40 | 
CCOC(=O)N1CCc2c([nH]c3ccc(Cl)cc23)C1c1cc(F)ccc1F (stereo not drawn) [Compound 82] | 8 to 40 | 
O=C(OCCCl)N1CCc2c([nH]c3ccc(Cl)cc23)C1c1cc(F)cc(F)c1 (stereo not drawn) [Compound 83] | 8 to 40 | 
COC(=O)N1CCc2c([nH]c3ccc(Cl)cc23)C1c1cccc(F)c1 (stereo not drawn) [Compound 84] | 8 to 40 | 
CC(C)OC(=O)N1CCc2c([nH]c3ccc(Cl)cc23)C1c1cccc(C(F)(F)F)c1 (stereo not drawn) [Compound 85] | 8 to 40 | 
CCCOC(=O)N1CCc2c([nH]c3ccc(Cl)cc23)C1c1cccc(OC)c1 (stereo not drawn) [Compound 86] | 8 to 40 | 
CC(C)OC(=O)N1CCc2c([nH]c3ccc(Cl)cc23)C1c1cccc(Cl)c1 (stereo not drawn) [Compound 87] | 8 to 40 | 
COc1cccc(C2c3[nH]c4ccc(Cl)cc4c3CCN2C(=O)OC(C)C)c1 (stereo not drawn) [Compound 88] | 8 to 40 | 
O=C(OCCCl)N1CCc2c([nH]c3ccc(Cl)cc23)C1c1ccc([N+](=O)[O-])cc1 (stereo not drawn) [Compound 89] | 8 to 40 | 
CC(C)OC(=O)N1CCc2c([nH]c3ccc(Cl)cc23)C1c1cccc(F)c1 (stereo not drawn) [Compound 90] | 8 to 40 | 
CCOC(=O)N1CCc2c([nH]c3ccc(Cl)cc23)C1c1ccc(C)cc1 (stereo not drawn) [Compound 91] | 8 to 40 | 
COC(=O)N1CCc2c([nH]c3ccc(Cl)cc23)C1c1cc(F)cc(F)c1 (stereo not drawn) [Compound 92] | 8 to 40 | 
CCOC(=O)N1CCc2c([nH]c3ccc(Cl)cc23)C1c1cccc(Br)c1 (stereo not drawn) [Compound 93] | 8 to 40 | 
CCCOC(=O)N1CCc2c([nH]c3ccc(Cl)cc23)C1c1ccccc1 (stereo not drawn) [Compound 94] | 8 to 40 | 
CC(C)OC(=O)N1CCc2c([nH]c3ccc(Cl)cc23)C1c1cccc(Br)c1 (stereo not drawn) [Compound 95] | 8 to 40 | 
COC(=O)N1CCc2c([nH]c3ccc(Cl)cc23)C1c1ccccc1 (stereo not drawn) [Compound 96] | 8 to 40 | 
CCCOC(=O)N1CCc2c([nH]c3ccc(Cl)cc23)C1c1ccccc1F (stereo not drawn) [Compound 97] | 8 to 40 | 
CC(=O)N1CCc2c([nH]c3ccc(Br)cc23)C1c1cccc(Cl)c1 (stereo not drawn) [Compound 98] | 8 to 40 | 
O=C(OCCCl)N1CCc2c([nH]c3ccc(Cl)cc23)C1c1cccc(Br)c1 (stereo not drawn) [Compound 99] | 8 to 40 | 
CCOC(=O)N1CCc2c([nH]c3ccc(Cl)cc23)C1c1ccc(OCc2ccccc2)cc1 (stereo not drawn) [Compound 100] | 8 to 40 | 
CC(C)OC(=O)N1CCc2c([nH]c3ccc(Cl)cc23)C1c1ccccc1 (stereo not drawn) [Compound 101] | 8 to 40 | 
CC(=O)N1CCc2c([nH]c3ccc(Br)cc23)C1c1ccc(C(C)C)cc1 (stereo not drawn) [Compound 102] | 8 to 40 | 

Compound | EC50 (Homo sapiens) [nM] | EC50 [nM]
O=C(OCCCl)N1CCc2c([nH]c3ccc(Cl)cc23)C1c1ccccc1F (stereo not drawn) [Compound 103] | 8 to 40 | 
COC(=O)N1CCc2c([nH]c3ccc(Cl)cc23)C1c1cccc(Cl)c1 (stereo not drawn) [Compound 104] | 8 to 40 | 
CC(C)OC(=O)N1CCc2c([nH]c3ccc(Cl)cc23)C1c1ccccc1F (stereo not drawn) [Compound 105] | 8 to 40 | 
CCOC(=O)N1CCc2c([nH]c3ccc(Cl)cc23)C1c1ccccc1F (stereo not drawn) [Compound 106] | 8 to 40 | 
CCOC(=O)N1CCc2c([nH]c3ccc(Cl)cc23)C1c1cccc(OC)c1 (stereo not drawn) [Compound 107] | 8 to 40 | 
COC(=O)N1CCc2c([nH]c3ccc(Cl)cc23)C1c1ccccc1F (stereo not drawn) [Compound 108] | 8 to 40 | 
CCOC(=O)N1CCc2c([nH]c3ccc(Cl)cc23)C1c1cccc(C)c1 (stereo not drawn) [Compound 109] | 8 to 40 | 
COc1ccc(C2c3[nH]c4ccc(Br)cc4c3CCN2O)cc1 (stereo not drawn) [Compound 110] | 8 to 40 | 
COC(=O)N1CCc2c([nH]c3ccc(Cl)cc23)C1c1ccc([N+](=O)[O-])cc1 (stereo not drawn) [Compound 111] | 8 to 40 | 
CC(C)c1ccc(C2NCCc3c2[nH]c2ccc(Br)cc32)cc1 (stereo not drawn) [Compound 112] | 8 to 40 | 
CCOC(=O)N1CCc2c([nH]c3ccc(Br)cc23)C1c1ccc(OC)cc1 (stereo not drawn) [Compound 112] | < 8 | 
CCOC(=O)N1CCc2c([nH]c3ccc(Cl)cc23)C1c1ccc2c(c1)OCO2 (stereo not drawn) [Compound 113] | 8 to 40 | 
O=C(OCCCl)N1CCc2c([nH]c3ccc(Cl)cc23)C1c1ccccc1 (stereo not drawn) [Compound 114] | 8 to 40 | 
CCOC(=O)N1CCc2c([nH]c3ccc(Br)cc23)C1c1cc(F)ccc1F (stereo not drawn) [Compound 115] | 8 to 40 | 
O=C(OCCCl)N1CCc2c([nH]c3ccc(Cl)cc23)C1c1cccc(F)c1 (stereo not drawn) [Compound 116] | 8 to 40 | 
COc1cccc(C2c3[nH]c4ccc(Cl)cc4c3CCN2C(=O)OCCCl)c1 (stereo not drawn) [Compound 117] | 8 to 40 | 
COC(=O)N1CCc2c([nH]c3ccc(Cl)cc23)C1c1ccc(C#N)cc1 (stereo not drawn) [Compound 118] | 8 to 40 | 
CCOC(=O)N1CCc2c([nH]c3ccc(Cl)cc23)C1c1ccc(C#N)cc1 (stereo not drawn) [Compound 120] | 8 to 40 | 
O=C(Oc1ccccc1)N1CCc2c([nH]c3ccc(Cl)cc23)C1c1ccccc1 (stereo not drawn) [Compound 121] | 8 to 40 | 
CC(C)COC(=O)N1CCc2c([nH]c3ccc(Cl)cc23)C1c1ccccc1 (stereo not drawn) [Compound 122] | 8 to 40 | 
Fc1cccc(C2NCCc3c2[nH]c2ccc(Cl)cc32)c1F (stereo not drawn) [Compound 123] | 8 to 40 | 
Clc1ccc(C2NCCc3c2[nH]c2ccc(Cl)cc32)c(Cl)c1 (stereo not drawn) [Compound 124] | 40 to 200 | 
COC(=O)N1CCc2c([nH]c3ccc(Cl)cc23)C1c1cccc(C(F)(F)F)c1 (stereo not drawn) [Compound 125] | 40 to 200 | 
CCOC(=O)N1CCc2c([nH]c3ccc(Cl)cc23)C1c1cc(=O)c2ccccc2o1 (stereo not drawn) [Compound 126] | 40 to 200 | 
